5 molecules from patent US20070128285A1, “Pharmaceutical composition for oral administration” (priority 2005, published 2007) can be followed below.

The nature of this data set: Stability of setron drug aqueous solutions (0.1 w/w %) at pH 8 to 3, stored at 40° C. for three months. The class given is physicochemical. The settings on record: 0.1 w/w % aqueous solution. The protocol: The present inventors have investigated the stability of each setron drug (azasetron, granisetron, tropisetron, ramosetron, or ondansetron) in the aqueous solution of pH 8 to3. That is, an aqueous solution of each setron drug (0.1 w/w %) was adjusted to various pH values (pH 8 to 3) with hydrochloric acid or sodium hydroxide. After storing at 40° C. for three months, the external appearance and taste of the solution were observed. As a result, for each of the setron drugs, the aqueous solution of pH 8 is colored faint yellow, but the aqueous solution of pH 3 to 7 is colorless.

The mark [1] stands for this setting: pH 3 to 7, stored at 40° C. for three months.
The mark [2] stands for this setting: pH 8, stored at 40° C. for three months.

As to `Cc1nccn1CC1CCc2c(c3ccccc3n2C)C1=O` (stereo not shown) [ondansetron], the “external appearance (color) of the aqueous solution” value by setting is: under setting [1], “colorless”; under setting [2], “faint yellow”.
Taken in the same sequence, the figures for `CN1[C@@H]2CC[C@H]1C[C@@H](OC(=O)c1c[nH]c3ccccc13)C2` [tropisetron] were “colorless” and “faint yellow”.
In the case of `Cn1cc(C(=O)[C@@H]2CCc3nc[nH]c3C2)c2ccccc21` [ramosetron], the “external appearance (color) of the aqueous solution” value is, setting by setting: under setting [1], “colorless”; under setting [2], “faint yellow”.
For `CN1C(=O)COc2c(C(=O)NC3CN4CCC3CC4)cc(Cl)cc21` (stereo not shown) [azasetron] the same measures were “colorless” and “faint yellow”.
Taken in the same sequence, the figures for `CN1C2CCCC1CC(NC(=O)c1nn(C)c3ccccc13)C2` (stereo not shown) [granisetron] were “colorless” and “faint yellow”.
